# According to patent US20080119513A1, “Sulfonamide Derivative Selectively Inhibiting Mmp-13” (priority 2004, published 2008):
# Columns and labels:
# Assay type in all cases: biochemical
# MMP-9 = MMP-9 (Homo sapiens, UniProt P14780); assay: Assay for inhibitory activities on MMPs (fluorogenic peptide substrate), MMP-9
# Source text: MMP-9 was isolated and purified by the procedure of Y. Okada et al. (Yasunori Okada, Yukio Gonoji, Katsumi Naka, Katsuro Tomita, Isao Nakanishi, Kazushi Iwata, Kyoko Yamashita, and Taro Hayakawa: Matrix metalloproteinase 9 (92-kDa gelatinase/type IV collagenase) from HT1080 human fibrosarcoma cells. Purification and activation of the precursor and enzymic properties, J. Biol. Chem., 1992, 267, 21712-21719) in combination with other following methods: 1) Yasunori Okada, Tatsuhisa Morodomi, Jan J, Enghild, Ko Suzuki, Atsushi Yasui, Isao Nakanishi, Guy Salvesen and Hideaki Nagase: Matrix metalloproteinase 2 from human rheumatoid synovial fibroblasts. Purification and activation of the precursor and enzymic properties, Eur. J. Biochem., 1990, 194, 721-730; 2) Robin V Ward, Rosalind M Hembry, John J Reynolds and Gillian Murphy: The purification of tissue inhibitor of metalloproteinase-2 from its 72 kDa progelatinase complex. Biochem. J., 1991, 278, 179-187. In detail, human fibrosarcoma ATCC HT1080 cell line was cultured to confluent in Dulbecco's Modified Medium (DMEM) containing 10% fetal-calf serum at 37° C. for 48 hours. Subsequently, the medium of confluent culture was changed to serum-free DMEM medium. To obtain MMP-9, phorbol-12-myristate-13-acetate (TPA) must be added to this serum-free DMEM medium at a concentration of 50 ng/ml. The TPA-treated medium was centrifuged at 3000 rpm for 15 min, and the supernatant was concentrated to 450 ml by a Toyo-Roshi UP-20 apparatus with an ultrafiltration membrane. Then, proMMP-9 in this concentrated solution was purified by using columns of Gelatin-Sepharose and Concanavalin A-Sepharose. The pool containing proMMP-9 was dialyzed, concentrated (Toyo-Roshi UP-20) and applied to columns of Sephacryl S-200 and Green A matrix for the separation from TIMPs. The obtained proMMP-9 fraction was activated by TPCK-Trypsin (Final conc.: 3 μg/501 React Mix.).
# (§1) The enzymatic activity on MMPs was analyzed by the method described in “C. Graham Knight, Frances Willenbrock and Gillian Murphy: A novel coumarin-labelled peptide for sensitive continuous assays of the matrix metalloproteinases: FEBS LETT., 296, (1992), 263-266”. The substrate: MOCAc-Pro-Leu-Gly-Leu-A2Pr(DNP)-Ala-Arg-NH2 was purchased from Peptide Institute, Inc., Osaka, Japan. The measurement of the inhibitory activities (IC50) was carried out by the following four methods;
# (§2) (A) Reaction with substrate, enzyme (MMPs) and inhibitor
# (§3) (B) Reaction with substrate and inhibitor, without enzyme
# (§4) (C) Reaction with substrate and enzyme (MMPs), without inhibitor
# (§5) (D) Reaction with substrate only
# (§6) IC50 values were calculated by using the following formula and each fluorescence values of above four methods (A to D).
# (§7) % inhibition={1-(A−B)/(C−D)}×100
# (§8) IC50 means the concentration required to inhibit 50% of the enzyme activity.
# (§9) The value of inhibitory activity against MMP-2, MMP-8, MMP-9, MMP-12, and MMP-13 measured by above mentioned methods are shown in Table 25 and 26.
# MMP-2 = target: T1, MMP-2 (Homo sapiens, UniProt P08253); assay: Assay for inhibitory activities on MMPs (fluorogenic peptide substrate), MMP-2
# T1 sequence (P08253 110-660): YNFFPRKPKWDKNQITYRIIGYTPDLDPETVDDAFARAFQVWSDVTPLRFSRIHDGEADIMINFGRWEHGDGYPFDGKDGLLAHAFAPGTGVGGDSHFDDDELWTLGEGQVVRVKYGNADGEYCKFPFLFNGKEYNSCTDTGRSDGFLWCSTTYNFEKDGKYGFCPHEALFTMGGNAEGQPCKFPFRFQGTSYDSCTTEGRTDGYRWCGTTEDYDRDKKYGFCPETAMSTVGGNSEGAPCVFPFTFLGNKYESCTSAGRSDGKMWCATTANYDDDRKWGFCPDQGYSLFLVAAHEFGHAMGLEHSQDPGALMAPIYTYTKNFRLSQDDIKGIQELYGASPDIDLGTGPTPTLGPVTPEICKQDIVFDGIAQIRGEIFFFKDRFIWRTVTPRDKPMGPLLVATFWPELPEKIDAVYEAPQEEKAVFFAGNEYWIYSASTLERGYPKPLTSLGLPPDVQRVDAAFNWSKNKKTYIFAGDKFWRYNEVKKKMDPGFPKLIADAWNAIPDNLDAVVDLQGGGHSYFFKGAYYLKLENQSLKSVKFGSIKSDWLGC
# Method: MMP-2 was purchased from Calbiochem-Novabiochem International, Inc.
# as §1, §2, §3, §4, §5, §6, §7, §8, §9
# MMP-8 = target: T2, MMP-8 (Homo sapiens, UniProt P22894); assay: Assay for inhibitory activities on MMPs (fluorogenic peptide substrate), MMP-8
# T2 construct: In regard to MMP-8, catalytic domain (^99Phe˜^262Gly) was amplified with PCR; His-tag; enterokinase digestion-site
# Source text: In regard to MMP-8, catalytic domain (^99Phe˜^262Gly) was amplified with PCR using commercial available Human Bone Marrow cDNA. This was cloned in Escherichia coli expression vector pTrc99AHE inserted with His-tag sequence and enterokinase digestion-site, induced and expressed by IPTG (Isopropyl-β-D-thiogalactopyranoside) and expressed in a insoluble fraction (Than F. Ho, M. Walid Qoronfleh, Robert C. Wahl, Trica A. Pulvino, Karen J. Vavra, Joe Falvo, Tracey M. Banks, Patricia G. Brake and Richard B. Ciccarelli: Gene expression, purification and characterization of recombinant human neutrophil collagenase. Gene 146, (1994) 297-301. It was prepared by the method in a slight modification). Isolation of MMP-8 from an insoluble fraction was carried out by dissolving in modifier (6 M urea) by a usual method and purification with metal chelate chromatography. And then removing modifier (6 M urea) with dialysis and refolding of the enzyme spontaneously gave activated MMP-8.
# as §1, §2, §3, §4, §5, §6, §7, §8, §9
# MMP-13 = target: T3, MMP-13 (Homo sapiens, UniProt P45452); assay: Assay for inhibitory activities on MMPs (fluorogenic peptide substrate), MMP-13
# T3 construct: catalytic domain (^104Tyr˜^267Gly) was amplified with RT-PCR; His-tag; enterokinase digestion-site
# Method: In regard to MMP-13, mRNA was prepared from carcinoma cell SW1353 derived from human cartilage stimulate by IL-1 and TNF, and catalytic domain (^[…]) was amplified with RT-PCR. This was cloned in Escherichia coli expression vector […] inserted with His-tag sequence and enterokinase digestion-site, induced and expressed by IPTG (Isopropyl-β-D-thiogalactopyranoside) and expressed in an insoluble fraction. Isolation of MMP-13 from an insoluble fraction was carried out by dissolving in modifier (6 M urea) by a usual method and purification with metal chelate chromatography (Ni […] Sepharose). And then removing modifier (6 M urea) with dialyze and refolding of the enzyme spontaneously gave activated MMP-13. The enzymatic activity on MMPs was analyzed by the method described in “C. Graham Knight, Frances Willenbrock and Gillian Murphy: A novel coumarin-labelled peptide for sensitive continuous assays of the matrix metalloproteinases: FEBS LETT., 296, (1992), 263-266”. The substrate: MOCAc-[…] was purchased from Peptide Institute, Inc., Osaka, Japan. The measurement of the inhibitory activities (IC50) was carried out by the following four methods; (A) Reaction with substrate, enzyme (MMPs) and inhibitor (B) Reaction with substrate and inhibitor, without enzyme (C) Reaction with substrate and enzyme (MMPs), without inhibitor (D) Reaction with substrate only IC50 values were calculated by using the following formula and each fluorescence values of above four methods (A to D). % inhibition={1-(A-B)/(C-D)}×100 IC50 means the concentration required to inhibit 50% of the enzyme activity. The value of inhibitory activity against MMP-2, MMP-8, MMP-9, MMP-12, and MMP-13 measured by above mentioned methods are shown in Table 25 and 26.
# MMP-12 = target: T4, MMP-12 (Homo sapiens, UniProt P39900); assay: Assay for inhibitory activities on MMPs (fluorogenic peptide substrate), MMP-12
# T4 construct: In regard to MMP-12, catalytic domain (^100Phe˜^263Gly) was amplified with RT-PCR; His-tag; enterokinase digestion-site
# Method: In regard to MMP-12, catalytic domain (^100Phe˜^263Gly) was amplified with RT-PCR from Human Placenta Total RNA. This was cloned in Escherichia coli expression vector pTrc99AHE inserted with His-tag sequence and enterokinase digestion-site, induced and expressed by IPTG (Isopropyl-β-D-thiogalactopyranoside) and expressed in an insoluble fraction. Isolation of MMP-12 from an insoluble fraction was carried out by dissolving in modifier (6 M urea) by a usual method and purification with metal chelate chromatography (Ni Chelateing Sepharose). And then removing modifier (6 M urea) with dialysis and refolding of the enzyme spontaneously gave activated MMP-12.
# as §1, §2, §3, §4, §5, §6, §7, §8, §9
# T4 sequence (P39900 100-263): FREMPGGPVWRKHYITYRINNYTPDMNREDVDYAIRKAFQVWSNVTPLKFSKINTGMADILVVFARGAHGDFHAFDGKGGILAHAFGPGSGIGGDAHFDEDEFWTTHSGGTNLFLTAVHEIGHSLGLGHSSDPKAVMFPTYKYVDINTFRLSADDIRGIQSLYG
# T2 sequence (P22894 99-262): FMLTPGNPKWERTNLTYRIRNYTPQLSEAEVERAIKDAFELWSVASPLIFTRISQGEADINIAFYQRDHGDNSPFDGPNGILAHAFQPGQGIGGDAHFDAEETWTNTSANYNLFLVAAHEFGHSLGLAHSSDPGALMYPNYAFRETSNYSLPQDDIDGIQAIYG
# Chain of MMP-9 (P14780 107-707): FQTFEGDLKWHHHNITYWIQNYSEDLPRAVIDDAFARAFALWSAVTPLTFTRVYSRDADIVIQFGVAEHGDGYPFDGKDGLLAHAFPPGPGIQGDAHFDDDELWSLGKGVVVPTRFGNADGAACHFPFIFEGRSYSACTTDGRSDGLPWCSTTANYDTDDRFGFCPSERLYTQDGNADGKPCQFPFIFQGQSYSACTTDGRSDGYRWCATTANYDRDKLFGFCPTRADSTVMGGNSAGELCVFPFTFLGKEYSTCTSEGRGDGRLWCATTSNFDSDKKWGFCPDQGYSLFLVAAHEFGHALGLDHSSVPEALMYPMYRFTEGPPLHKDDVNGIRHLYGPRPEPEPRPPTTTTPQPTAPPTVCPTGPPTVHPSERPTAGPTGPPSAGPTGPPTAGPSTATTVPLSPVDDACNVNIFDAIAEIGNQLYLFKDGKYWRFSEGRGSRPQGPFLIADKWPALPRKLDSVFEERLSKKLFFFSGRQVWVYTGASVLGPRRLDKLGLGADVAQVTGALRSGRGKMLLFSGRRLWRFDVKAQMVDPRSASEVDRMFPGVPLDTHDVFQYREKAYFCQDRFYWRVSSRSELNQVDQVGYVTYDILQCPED
SMILES,IC50 (MMP-9),IC50 (MMP-2),IC50 (MMP-8),IC50 (MMP-13),IC50 (MMP-12)
O=C(O)[C@@H](CC1CCCCC1)NS(=O)(=O)c1ccc(-c2ccc(C#Cc3ccc4ccccc4c3)cc2)cc1 [III-15],> 10000 nM,> 10000 nM,7680 nM,225 nM,> 10000 nM
COc1ccc(C(=O)Nc2ccc(-c3ccc(S(=O)(=O)N[C@@H](CCSC)C(=O)O)cc3)cc2)cc1OC [VI-35],> 10000 nM,2220 nM,215 nM,68.7 nM,232 nM
COc1ccc2cc(C#Cc3ccc(-c4ccc(S(=O)(=O)N[C@@H](CO)C(=O)O)cc4)cc3)ccc2c1 [III-45],> 10000 nM,> 10000 nM,> 10000 nM,19.3 nM,> 10000 nM
COc1ccc2cc(C#Cc3ccc(-c4ccc(S(=O)(=O)N[C@H](CCC(=O)O)C(=O)O)cc4)cc3)ccc2c1 [III-27],> 10000 nM,58.9 nM,33.3 nM,2.71 nM,36.8 nM
COc1ccc2cc(C#Cc3ccc(-c4ccc(S(=O)(=O)N[C@@H](CCSC)C(=O)O)cc4)cc3)ccc2c1 [III-25],> 10000 nM,2850 nM,89.3 nM,24.2 nM,117 nM
CSCC[C@H](NS(=O)(=O)c1ccc(-c2ccc(C#Cc3ccc4ccccc4c3)cc2)cc1)C(=O)O [III-10],> 10000 nM,374 nM,25.9 nM,2.86 nM,29.7 nM
C[C@H](NS(=O)(=O)c1ccc(-c2ccc(C#Cc3ccc4ccccc4c3)cc2)cc1)C(=O)O [III-3],> 10000 nM,> 10000 nM,56.3 nM,7.86 nM,70.9 nM
COc1ccc2cc(C#Cc3ccc(-c4ccc(S(=O)(=O)N[C@@H](Cc5c[nH]c6ccccc56)C(=O)O)cc4)cc3)ccc2c1 [III-31],> 10000 nM,> 10000 nM,4460 nM,20.1 nM,901 nM

# Further lines, results first:
IC50 (MMP-9),IC50 (MMP-2),IC50 (MMP-8),IC50 (MMP-13),IC50 (MMP-12),SMILES
> 10000 nM,> 10000 nM,5300 nM,78.8 nM,> 10000 nM,COc1ccc2cc(C#Cc3ccc(-c4ccc(S(=O)(=O)N[C@@H](Cc5ccccc5)C(=O)O)cc4)cc3)ccc2c1 [III-29]
> 10000 nM,664 nM,5400 nM,81.1 nM,> 10000 nM,CC(C)[C@@H](NS(=O)(=O)c1ccc(-c2ccc(NC(=O)c3ccc4ccccc4c3)cc2)cc1)C(=O)O [VI-39]
4340 nM,156 nM,2350 nM,33.3 nM,611 nM,O=C(Nc1ccc(-c2ccc(S(=O)(=O)N[C@H](Cc3ccccc3)C(=O)O)cc2)cc1)c1cccs1 [VI-7]
> 5000 nM,> 5000 nM,> 5000 nM,15.7 nM,2200 nM,COc1ccc2cc(C#Cc3ccc(-c4ccc(S(=O)(=O)N[C@H](Cc5ccccc5)C(=O)O)cc4)cc3)ccc2c1 [III-28]
> 10000 nM,197 nM,1740 nM,31.1 nM,334 nM,O=C(Nc1ccc(-c2ccc(S(=O)(=O)N[C@H](Cc3ccccc3)C(=O)O)cc2)cc1)c1ccc2c(c1)OCO2 [VI-12]
> 10000 nM,222 nM,> 10000 nM,55.5 nM,801 nM,COc1ccc(C(=O)Nc2ccc(-c3ccc(S(=O)(=O)N[C@H](C)C(=O)O)cc3)cc2)cc1 [VI-15]
> 10000 nM,563 nM,1100 nM,77.1 nM,1020 nM,COc1cccc(C(=O)Nc2ccc(-c3ccc(S(=O)(=O)N[C@H](C)C(=O)O)cc3)cc2)c1 [VI-16]
> 10000 nM,127 nM,> 10000 nM,35.6 nM,952 nM,Cc1ccc(C(=O)Nc2ccc(-c3ccc(S(=O)(=O)N[C@H](C)C(=O)O)cc3)cc2)cc1 [VI-17]
> 10000 nM,> 10000 nM,> 10000 nM,136 nM,> 10000 nM,O=C(Nc1ccc(-c2ccc(S(=O)(=O)N[C@H](Cc3ccccc3)C(=O)O)cc2)cc1)c1cc2ccccc2s1 [VI-47]
> 10000 nM,139 nM,> 10000 nM,38.8 nM,9010 nM,O=C(Nc1ccc(-c2ccc(S(=O)(=O)N[C@H](Cc3ccccc3)C(=O)O)cc2)cc1)c1ccc(F)c(F)c1 [VI-11]
